This is an account of results in patent US20250296938A1, “Compounds that Interact with the Ras Superfamily for the Treatment of Cancers, Inflammatory Diseases, Rasopathies, and Fibrotic Disease” (SHY Therapeutics, LLC, priority 2018, published 2025).

Molecules are shown by their SMILES.

One experiment relates to MIA PaCa-2 pancreatic cancer cell line. The experiment in a line: Cell proliferation assay (DAPI). As to conditions: Homo sapiens; 10 μM, 2-4 days, MIA PaCa-2; read-out: % Inhibition of cell proliferation, MIA PaCa-2 % inh. It counts as cell-based. The procedure: Cell lines: Human NSCLC cells NCI-H1975 and NCI-H1299, and tumor-derived pancreatic cancer cell lines Panc-1, MIA-PACA2, and BxPC3, were all purchased from American Type Culture Collection and grown in complete RPMI medium (BxPC3, NCI-H1975 and NCI-H1299) or DMEM-High Glucose (Panc1 and MIA-PaCa-2), supplemented with penicillin (100 U/mL), streptomycin (100 μg/mL), and 10% heat-inactivated FBS at 37° C. in a humidified incubator with 5% CO2.
Method: Cells were plated at 2000 to 5000 cells/well density in 96-wells plate and cultured ON. Small molecules to be tested were added to the cells in the final concentration of 10 µM in the presence of 0.3% DMSO and 10% FBS, and incubated for 2-4 days at 37° C. in a humidified incubator with 5% CO2. For IC50 value determination, serial dilutions of compounds were added to cells under the same conditions.
Assay: At the end of the incubation period, cell cultures were fixed with a 50-50 mixture (v/v) acetone-methanol for 10 minutes at −20° C., followed by rehydration in PBS for 10 minutes at room temperature. DNA total content was determined by staining cells with DAPI (1 ug/ml) in PBS for 10 minutes at room temperature, followed by 3 washes with PBS. After staining, DAPI fluorescence was recorded (358 nm excitation/461 nm emission) with the 96-well plate reader Molecular Devices Spectramax M3; degree of small molecule-dependent proliferation inhibition was calculated from raw data.
For `COC1CCN(c2nc(-c3nccn3C)nc3sc(-c4ccccc4CO)c(-c4ccccc4)c23)C1` (stereo not shown) [drawing 580], the inhibition at 10 µM lay in the range of 76 to 100%.

For the molecule `COc1nscc1-c1sc2nc(-c3nccn3C)nc(N3CCC(OC)C3)c2c1-c1ccccc1` (stereo not shown) [drawing 581], the inhibition at 10 µM is 76 to 100%.

`COC1CCN(c2nc(-c3nccn3C)nc3sc(-c4ccnc(N(C)C)c4)c(-c4ccccc4)c23)C1` (stereo not shown) [drawing 582]: the inhibition at 10 µM fell in the range of 76 to 100%.

In the case of `COC1CCN(c2nc(-c3nccn3C)nc3sc(Br)c(-c4ccccc4)c23)C1` (stereo not shown) [drawing 583], the inhibition at 10 µM was 76 to 100%.

With `COc1ccc(-c2c(-c3cccc(OC)c3F)sc3nc(-c4nccn4C)nc(N4CCC(OC)C4)c23)cc1` (stereo not shown) [drawing 584], the inhibition at 10 µM lay within 76 to 100%.

Take `COCC1CN(c2nc(-c3nccn3C)nc3sc(-c4cccc(OC)c4F)c(-c4ccc(OC)cc4)c23)C1` [drawing 585]: the inhibition at 10 µM lay within 76 to 100%.

Take `COc1cccc(-c2sc3nc(-c4nccn4C)nc(N4CCC(OC)C4)c3c2-c2ccccc2)c1F` (stereo not shown) [drawing 586]: the inhibition at 10 µM lay in the range of 76 to 100%.

Take `COc1c(O)nc(-c2ccccn2)nc1Oc1cnn(C)c1` [drawing 587]: the inhibition at 10 µM is 0%.

`COc1c(O)nc(-c2ccccn2)nc1Oc1ccc2ncccc2c1` [drawing 588]: the inhibition at 10 µM was in the range of 1 to 25%.

Take `COc1c(O)nc(-c2ccccn2)nc1Oc1cccnc1` [drawing 589]: the inhibition at 10 µM stood at 0%.

Regarding `COc1cccc(Oc2nc(-c3ccccn3)nc(O)c2OC)c1` [drawing 590], the inhibition at 10 µM came out at 0%.

Take `COc1ccc(Oc2nc(-c3ccccn3)nc(O)c2OC)cc1` [drawing 591]: the inhibition at 10 µM lay within 26 to 50%.

Consider `COCCc1ccc(Oc2nc(-c3ccccn3)nc(O)c2OC)cc1` [drawing 592], for which the inhibition at 10 µM was 76 to 100%.

With `COc1c(O)nc(-c2ccccn2)nc1Oc1ccccc1` [drawing 593], the inhibition at 10 µM was 76 to 100%.

As for `O=C(c1nc(-c2ccccn2)nc(O)c1O)N1CCc2ccccc2C1` [drawing 594], the inhibition at 10 µM was in the range of 1 to 25%.

As to `O=C(c1nc(-c2ccccn2)nc(O)c1O)N1CCOCC1` [drawing 595], the inhibition at 10 µM is 0%.

For the molecule `O=C(NCc1ccccc1)c1nc(-c2ccccn2)nc(O)c1O` [drawing 597], the inhibition at 10 µM was 26 to 50%.

Regarding `O=C(c1nc(-c2ccccn2)nc(O)c1O)N1CCCC1` [drawing 598], the inhibition at 10 µM was in the range of 1 to 25%.

Take `O=C(NC1CCCC1)c1nc(-c2ccccn2)nc(O)c1O` [drawing 599]: the inhibition at 10 µM lay within 26 to 50%.

Turning to `CC(C)CN(C)C(=O)c1nc(-c2ccccn2)nc(O)c1O` [drawing 600], the inhibition at 10 µM came to 0%.

As for `CC(C)CNC(=O)c1nc(-c2ccccn2)nc(O)c1O` [drawing 601], the inhibition at 10 µM stood at 0%.

`COCCN(C)C(=O)c1nc(-c2ccccn2)nc(O)c1O` [drawing 602]: the inhibition at 10 µM came to 0%.

With `O=C(NC1CCC1)c1nc(-c2ccccn2)nc(O)c1O` [drawing 603], the inhibition at 10 µM amounted to 0%.

Consider `CC(C)NC(=O)c1nc(-c2nccn2C)nc(O)c1O` [drawing 604], for which the inhibition at 10 µM fell in the range of 26 to 50%.

Regarding `CCN(CC)C(=O)c1nc(-c2nccn2C)nc(O)c1O` [drawing 605], the inhibition at 10 µM was 1 to 25%.

Turning to `Cn1ccnc1-c1nc(O)c(O)c(C(=O)N2CCCC2)n1` [drawing 606], the inhibition at 10 µM amounted to 0%.

As to `Cn1ccnc1-c1nc(O)c(O)c(C(=O)NC2CCCC2)n1` [drawing 607], the inhibition at 10 µM is 0%.

For the molecule `Cn1ccnc1-c1nc(O)c(O)c(C(=O)N2CCCCC2)n1` [drawing 608], the inhibition at 10 µM was in the range of 1 to 25%.

In the case of `Cn1ccnc1-c1nc(O)c(O)c(C(=O)NC2CCC2)n1` [drawing 609], the inhibition at 10 µM was determined as 1%.

For `COC(=O)c1nc(-c2nccn2C)nc(O)c1O` [drawing 610], the inhibition at 10 µM was determined as 0%.

For `COc1nc(-c2ccccn2)nc(Nc2cnn(C)c2)c1OC` [drawing 611], the inhibition at 10 µM lay in the range of 1 to 25%.

For `COCCn1cc(Nc2nc(-c3ccccn3)nc(OC)c2OC)cn1` [drawing 612], the inhibition at 10 µM fell in the range of 26 to 50%.

For `COC1CCN(c2nc(-c3nccn3C)nn3cc(-c4ccccc4)c(-c4ccccc4)c23)C1` (stereo not shown) [drawing 613], the inhibition at 10 µM lay in the range of 76 to 100%.

Staying with this experiment, now noted: Homo sapiens; 10 μM, MIA PaCa-2 (Table 5A); read-out: % Inhibition of cell proliferation, MIA PaCa-2 % inh.
Turning to `COc1c(O)nc(-c2ccccn2)nc1Oc1ccc(C(=O)N(C)C)cc1` [drawing 614], the inhibition at 10 µM was 1 to 25%.

Take `COc1c(O)nc(-c2ccccn2)nc1Nc1ccccc1` [drawing 615]: the inhibition at 10 µM fell in the range of 76 to 100%.

Consider `CCn1cc(Nc2nc(-c3ccccn3)nc(O)c2OC)cn1` [drawing 616], for which the inhibition at 10 µM turned out to be 0%.

For the molecule `CCOc1cccc(Nc2nc(-c3ccccn3)nc(O)c2OC)c1` [drawing 617], the inhibition at 10 µM fell in the range of 76 to 100%.

Consider `COc1cccc(-c2sc3nc(-c4nccn4C)nc(NC4CCC(OC)C4)c3c2-c2ccccc2)c1F` (stereo not shown) [drawing 618], for which the inhibition at 10 µM was 76 to 100%.

For `COc1cccc(-c2sc3nc(-c4nccn4C)nc(N[C@@H]4CC[C@H](OC)C4)c3c2-c2ccccc2)c1F` [drawing 619], the inhibition at 10 µM lay within 76 to 100%.

In the case of `COC1CCC(Nc2nc(-c3nccn3C)nc3sc(-c4cccc(O)c4F)c(-c4ccccc4)c23)C1` (stereo not shown) [drawing 620], the inhibition at 10 µM lay in the range of 76 to 100%.

As to `COc1c(F)cccc1-c1sc2nc(-c3nccn3C)nc(NC3CCC(OC)C3)c2c1-c1ccccc1` (stereo not shown) [drawing 621], the inhibition at 10 µM lay within 76 to 100%.

With `COc1c(F)cccc1-c1sc2nc(-c3nccn3C)nc(N[C@@H]3CC[C@H](OC)C3)c2c1-c1ccccc1` [drawing 622], the inhibition at 10 µM fell in the range of 76 to 100%.

In the case of `COC1CCC(Nc2nc(-c3nccn3C)nc3sc(-c4cccc5[nH]ncc45)c(-c4ccccc4)c23)C1` (stereo not shown) [drawing 623], the inhibition at 10 µM is 76 to 100%.

Take `CO[C@H]1CC[C@@H](Nc2nc(-c3nccn3C)nc3sc(-c4cccc5[nH]ncc45)c(-c4ccccc4)c23)C1` [drawing 624]: the inhibition at 10 µM lay in the range of 76 to 100%.

As to `COC1CCN(c2nc(-c3nccn3C)nc3sc(-c4cccc(O)c4F)c(-c4ccccc4)c23)C1` (stereo not shown) [drawing 625], the inhibition at 10 µM is 76 to 100%.

For the molecule `COc1cccc(-c2sc3nc(-c4nccn4C)nc(N[C@H]4C[C@@H](OC)C4)c3c2-c2ccccc2)c1F` [drawing 626], the inhibition at 10 µM is 76 to 100%.

As for `CO[C@H]1C[C@@H](Nc2nc(-c3nccn3C)nc3sc(-c4cnn(C)c4)c(-c4ccccc4)c23)C1` [drawing 627], the inhibition at 10 µM lay in the range of 76 to 100%.

As to `COc1cccc(-c2sc3nc(-c4nccn4C)nc(NC4CCC(OC)C4)c3c2C)c1F` (stereo not shown) [drawing 628], the inhibition at 10 µM fell in the range of 76 to 100%.

For the molecule `COc1cccc(-c2sc3nc(-c4nccn4C)nc(N[C@@H]4CC[C@H](OC)C4)c3c2C)c1F` [drawing 629], the inhibition at 10 µM lay in the range of 76 to 100%.

The same experiment, now with this note: Homo sapiens; MIA PaCa-2 (Table 5A).
One may read the IC50 as the concentration at which inhibition is half-maximal. Regarding `COc1c(O)nc(-c2ccccn2)nc1Nc1ccccc1` [drawing 615], the concentration for half-maximal inhibition (IC50) is greater than 1000 nM.

`CCn1cc(Nc2nc(-c3ccccn3)nc(O)c2OC)cn1` [drawing 616]: the half-inhibitory concentration (IC50) is greater than 1000 nM.

`CCOc1cccc(Nc2nc(-c3ccccn3)nc(O)c2OC)c1` [drawing 617] registered a half-inhibitory concentration (IC50) greater than 1000 nM.

As for `COc1cccc(-c2sc3nc(-c4nccn4C)nc(NC4CCC(OC)C4)c3c2-c2ccccc2)c1F` (stereo not shown) [drawing 618], the concentration for half-maximal inhibition (IC50) was 750 to 1000 nM.

For `COc1cccc(-c2sc3nc(-c4nccn4C)nc(N[C@@H]4CC[C@H](OC)C4)c3c2-c2ccccc2)c1F` [drawing 619], the 50% inhibitory concentration (IC50) lay in the range of 750 to 1000 nM.

Regarding `COC1CCC(Nc2nc(-c3nccn3C)nc3sc(-c4cccc(O)c4F)c(-c4ccccc4)c23)C1` (stereo not shown) [drawing 620], the IC50 is greater than 1000 nM.

As for `COc1c(F)cccc1-c1sc2nc(-c3nccn3C)nc(NC3CCC(OC)C3)c2c1-c1ccccc1` (stereo not shown) [drawing 621], the IC50 is 750 to 1000 nM.

`COc1c(F)cccc1-c1sc2nc(-c3nccn3C)nc(N[C@@H]3CC[C@H](OC)C3)c2c1-c1ccccc1` [drawing 622] showed an IC50 of 750 to 1000 nM.

`COC1CCC(Nc2nc(-c3nccn3C)nc3sc(-c4cccc5[nH]ncc45)c(-c4ccccc4)c23)C1` (stereo not shown) [drawing 623] displayed an IC50 of 750 to 1000 nM.

For the molecule `CO[C@H]1CC[C@@H](Nc2nc(-c3nccn3C)nc3sc(-c4cccc5[nH]ncc45)c(-c4ccccc4)c23)C1` [drawing 624], the 50% inhibitory concentration (IC50) fell in the range of 750 to 1000 nM.

The molecule `COC1CCN(c2nc(-c3nccn3C)nc3sc(-c4cccc(O)c4F)c(-c4ccccc4)c23)C1` (stereo not shown) [drawing 625] displayed a half-maximal inhibitory concentration (IC50) greater than 1000 nM.

Regarding `COc1cccc(-c2sc3nc(-c4nccn4C)nc(N[C@H]4C[C@@H](OC)C4)c3c2-c2ccccc2)c1F` [drawing 626], the IC50 fell in the range of 500 to 749 nM.

For the molecule `CO[C@H]1C[C@@H](Nc2nc(-c3nccn3C)nc3sc(-c4cnn(C)c4)c(-c4ccccc4)c23)C1` [drawing 627], the IC50 was in the range of 750 to 1000 nM.

Turning to `COc1cccc(-c2sc3nc(-c4nccn4C)nc(NC4CCC(OC)C4)c3c2C)c1F` (stereo not shown) [drawing 628], the IC50 fell in the range of 750 to 1000 nM.

`COc1cccc(-c2sc3nc(-c4nccn4C)nc(N[C@@H]4CC[C@H](OC)C4)c3c2C)c1F` [drawing 629] yielded an IC50 of 750 to 1000 nM.
